From US11866438B2, “Compositions, uses and methods for making them” (Pimera, Inc., priority 2015, dated 2024)
Where two headings read alike, the source gives them in different places.

Experiments:
Format in all cases: cell-based
SKM-1_1 = assay: Alamar Blue cell proliferation inhibition, SKM-1_1; conditions: Alamar Blue assay, 96 h incubation, Table 3; read-out: cell proliferation inhibition, Cell line SKM-1_1
Description: (§1) Inhibitory activity on cell proliferation of representative compounds of the invention was determined using an Alamar Blue cell viability assay as described hereafter.
(§2) 3000 cancer cells in 100 uL of cell culture media were plated in each well of a 96-well clear bottom, black wall cell culture-pretreated plate.
(§3) The next day compounds are serially diluted (3-fold in cell culture media) across a 96-well polypropylene mother plate from row A to row F, to yield 6 concentrations (10 uM, 3.3 uM, 1.1 uM, 370 nM, 124 nM and 41 nM) for each test compound. Rows G and H contain only DMSO.
(§4) Once titrations are made, the media in plates with cells were disposed and 100 μL of drug dilutions are transferred to plates with cells. After a ninety six-hour incubation at 37° C., 10 uL of resazurin solution from Alamar Blue Cell Viability kit (Invitrogen, Carlsbad, CA) was added to the media and cells were incubated at 37° C. for three more hours. At the end of this incubation the production of resofurin was measured using Spectrmax M2 microplate reader (Molecular Devices, Sunnyvale, CA)

P12-ICHIKAWA = assay: Alamar Blue cell proliferation inhibition, P12-ICHIKAWA; conditions: Homo sapiens, Alamar Blue assay, 96 h incubation, Table 3, read-out: cell proliferation inhibition, Cell line P12-ICHIKAWA
Description: as §1, §2, §3, §4

THP-1 = assay: Alamar Blue cell proliferation inhibition, THP-1; conditions: Homo sapiens, Alamar Blue assay, 96 h incubation, Table 3, read-out: cell proliferation inhibition, Cell line THP-1
Description: as §1, §2, §3, §4

KG-1 = assay: Alamar Blue cell proliferation inhibition, KG-1; conditions: Homo sapiens, Alamar Blue assay, 96 h incubation, Table 3, read-out: cell proliferation inhibition, Cell line KG-1
Description: as §1, §2, §3, §4

NB-4-1 = assay: Alamar Blue cell proliferation inhibition, NB-4-1; conditions: Alamar Blue assay, 96 h incubation, Table 3; read-out: cell proliferation inhibition, Cell line NB-4-1
Description: as §1, §2, §3, §4

ML-2 = assay: Alamar Blue cell proliferation inhibition, ML-2; conditions: Homo sapiens, Alamar Blue assay, 96 h incubation, Table 3, read-out: cell proliferation inhibition, Cell line ML-2
Description: as §1, §2, §3, §4

MBA-MB-231 = assay: Alamar Blue cell proliferation inhibition, MBA-MB-231 (MM231); conditions: Alamar Blue assay, 96 h incubation
Description: as §1, §2, §3, §4

SK-BR-3 = assay: Alamar Blue cell proliferation inhibition, SK-BR-3; conditions: Homo sapiens, Alamar Blue assay, 96 h incubation
Description: as §1, §2, §3, §4

[1] = Table 2, read-out: cell proliferation inhibition, Cell Line MBA-MB-231
[2] = Table 2, read-out: cell proliferation inhibition, Cell Line SK-BR-3
[3] = Table 3, read-out: cell proliferation inhibition, Cell line MM231
[4] = Table 3, read-out: cell proliferation inhibition, Cell line SK-BR-3

Row | SMILES | IC50 (MBA-MB-231; [1]) | IC50 (SK-BR-3; [2]) | further results
1 | CN(C)CCNc1nc2cccnc2n2c1nc1ccccc12 [Compound 5] |  |  | IC50 (SKM-1_1): 1 to 5 µM; IC50 (P12-ICHIKAWA): 1 to 5 µM; IC50 (THP-1): 1 to 5 µM; IC50 (KG-1): 1 to 5 µM; IC50 (NB-4-1): 1 to 5 µM; IC50 (ML-2): 1 to 5 µM
2 | Cc1ccc2nc(NCCN3CCCC3)c3nc4ccccc4n3c2n1 [Compound 12] | 1 to 5 µM | 1 to 5 µM | 
3 | Cc1ccc2nc(NCCN(C)C)c3nc4ccccc4n3c2n1 [Compound 13] | 1 to 5 µM | 1 to 5 µM | 
4 | Cc1ccc2nc(N3C[C@@H](C)N[C@@H](C)C3)c3nc4ccccc4n3c2n1 [Compound 14] | 1 to 5 µM | 1 to 5 µM | 
5 | Cc1ccc2nc(N3CCCN(C)CC3)c3nc4ccccc4n3c2n1 [Compound 15] | 1 to 5 µM | 1 to 5 µM | 
6 | Clc1cnc2c(c1)nc(NCCN1CCCC1)c1nc3ccccc3n12 [Compound 19] | 1 to 5 µM | 1 to 5 µM | 
7 | CN(C)CCNc1nc2cc(Cl)cnc2n2c1nc1ccccc12 [Compound 20] | 1 to 5 µM | 1 to 5 µM | 
8 | C[C@@H]1CN(c2nc3cc(Cl)cnc3n3c2nc2ccccc23)C[C@H](C)N1 [Compound 21] | > 10 µM | > 10 µM | 
9 | CN1CCCN(c2nc3cc(Cl)cnc3n3c2nc2ccccc23)CC1 [Compound 22] | 5 to 10 µM | 1 to 5 µM | 
10 | c1ccc2c(c1)nc1c(NCCN3CCCC3)nc3cncnc3n12 [Compound 26] | 1 to 5 µM | 1 to 5 µM | 
11 | CN(C)CCNc1nc2cncnc2n2c1nc1ccccc12 [Compound 27] | 1 to 5 µM | 1 to 5 µM | 
12 | C[C@@H]1CN(c2nc3cncnc3n3c2nc2ccccc23)C[C@H](C)N1 [Compound 28] | 1 to 5 µM | 1 to 5 µM | 
13 | CN1CCCN(c2nc3cncnc3n3c2nc2ccccc23)CC1 [Compound 29] | 1 to 5 µM | 1 to 5 µM | 
14 | CN(C)CCNc1nc2nccnc2n2c1nc1ccccc12 [Compound 34] | 1 to 5 µM | 1 to 5 µM | 
15 | C[C@@H]1CN(c2nc3nccnc3n3c2nc2ccccc23)C[C@H](C)N1 [Compound 35] | 1 to 5 µM | 1 to 5 µM | 
16 | CN1CCCN(c2nc3nccnc3n3c2nc2ccccc23)CC1 [Compound 36] | 1 to 5 µM | 1 to 5 µM | 
17 | O=c1[nH]c2ccc(NCCN3CCCC3)nc2n2c1nc1ccccc12 [Compound 39] |  |  | IC50 (MBA-MB-231; [3]): 1 to 5 µM; IC50 (SK-BR-3; [4]): 1 to 5 µM
18 | CN1CCCN(c2ccc3[nH]c(=O)c4nc5ccccc5n4c3n2)CC1 [Compound 41, 2-(4-Methyl-[1,4]diazepan-1-yl)-5H-1,5,7,11b-tetraaza-benzo[c]fluoren-6-one] |  |  | IC50 (SK-BR-3; [4]): < 1 µM
19 | CN(C)CCNC(=O)c1cc2cc3ccccc3nc2n2ccnc12 [Compound 52] |  |  | IC50 (SKM-1_1): < 1 µM; IC50 (P12-ICHIKAWA): 1 to 5 µM; IC50 (THP-1): 1 to 5 µM; IC50 (KG-1): 1 to 5 µM; IC50 (NB-4-1): 1 to 5 µM; IC50 (ML-2): 1 to 5 µM
20 | CN1CCCN(C(=O)c2cc3cc4ccccc4nc3n3ccnc23)CC1 [Compound 55] |  |  | IC50 (MBA-MB-231; [3]): > 10 µM; IC50 (SK-BR-3; [4]): > 10 µM
21 | COc1ccc2nc3c(cc(C(=O)N4CCCN(C)CC4)c4nccn43)cc2c1 [Compound 56] | > 10 µM | > 10 µM | 
22 | COc1ccc2nc3c(cc(C(=O)NCCN(C)C)c4nccn43)cc2c1 [Compound 57] | 1 to 5 µM | 1 to 5 µM | 
23 | CN1CCCN(C(=O)c2cc3cc4cc(Cl)ccc4nc3n3ccnc23)CC1 [Compound 60] | > 10 µM | > 10 µM | 
24 | CN(C)CCNC(=O)c1cc2cc3cc(Cl)ccc3nc2n2ccnc12 [Compound 61] | > 10 µM | > 10 µM | 
25 | O=C(NCCN1CCCC1)c1cc2cc3cc(Cl)ccc3nc2n2ccnc12 [Compound 62] | > 10 µM | > 10 µM | 
26 | C[C@@H]1CN(C(=O)c2cc3cc4cc(Cl)ccc4nc3n3ccnc23)C[C@H](C)N1 [Compound 63] | > 10 µM | > 10 µM | 
